ChEMBL document CHEMBL1201862, “PubChem BioAssay data set” (2004)
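These data come from cells grown in 96-well plates and exposed to compound for 48 hours at five concentrations. GI50 is the concentration that inhibits growth by half.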 Active and inactive are the calls of the source. No stated cut-off is given here; in the data, active = GI50 up to about 1.1 µM and inactive = higher.

Tests used:
Assay in all cases: growth of human tumour cells (NCI), 48 h
[1] = test system: SNB-19
[2] = test system: UACC-62
[3] = test system: ACHN
[4] = test system: OVCAR-8
[5] = test system: SF-295
[6] = test system: A498
[7] = test system: LOX IMVI
[8] = test system: MDA-MB-435
[9] = test system: TK-10
[10] = test system: SK-MEL-5
[11] = test system: NCI-H522
[12] = test system: CCRF-CEM
[13] = test system: HOP-92
[14] = test system: HL-60
[15] = test system: KM12
[16] = test system: HOP-62
[17] = test system: NCI-H460
[18] = test system: M14
[19] = test system: IGROV-1

Compound	GI50 [1]	GI50 [2]	GI50 [3]	GI50 [4]	GI50 [5]	GI50 [6]	GI50 [7]	GI50 [8]	GI50 [9]	GI50 [10]	GI50 [11]	GI50 [12]	GI50 [13]	GI50 [14]	GI50 [15]	GI50 [16]	GI50 [17]	GI50 [18]	GI50 [19]
CO/C=C(/C(=O)OC)c1ccccc1COc1cccc(C(F)(F)F)c1	22.1 µM (inactive)	0.638 µM (active)	3.63 µM (inactive)	8.69 µM (inactive)	3.3 µM (inactive)	4.85 µM (inactive)	1.16 µM (inactive)	1.01 µM (active)	3.18 µM (inactive)	0.473 µM (active)	0.526 µM (active)	0.489 µM (active)	5.65 µM (inactive)	< 0.01 µM (active)	11.3 µM (inactive)	12.6 µM (inactive)	1.22 µM (inactive)	68.7 µM (inactive)	4.57 µM (inactive)
COc1cc(OCc2ccc3nc(OC)c(OC)nc3c2)cc(OC)c1OC	> 10 µM (inactive)	> 10 µM (inactive)	> 10 µM (inactive)	> 10 µM (inactive)	> 10 µM (inactive)	> 10 µM (inactive)	> 10 µM (inactive)	> 10 µM (inactive)	> 10 µM (inactive)	> 10 µM (inactive)	> 10 µM (inactive)	> 10 µM (inactive)	7.18 µM (inactive)	> 10 µM (inactive)	> 10 µM (inactive)	> 10 µM (inactive)	> 10 µM (inactive)	> 10 µM (inactive)	> 10 µM (inactive)
CCCC(=O)Nc1cc(C(=O)N2C[C@@H]3C[C@]34C2=CC(=O)c2[nH]cc(C)c24)n(COC)c1	12.4 µM (inactive)	5.86 µM (inactive)	5.93 µM (inactive)	1.94 µM (inactive)	19.9 µM (inactive)	10 µM (inactive)	2.62 µM (inactive)	9.06 µM (inactive)	10.7 µM (inactive)	1.54 µM (inactive)	0.977 µM (active)	0.711 µM (active)	1.4 µM (inactive)	1.79 µM (inactive)	8.85 µM (inactive)	14 µM (inactive)	6.64 µM (inactive)	12.4 µM (inactive)	6.52 µM (inactive)
C#C[C@@]1(O)CCCC2=CC3(CC[C@]21C)SCCS3	> 100 µM (inactive)	> 100 µM (inactive)	> 100 µM (inactive)	> 100 µM (inactive)	> 100 µM (inactive)	> 100 µM (inactive)	> 100 µM (inactive)	> 100 µM (inactive)	> 100 µM (inactive)	> 100 µM (inactive)	> 100 µM (inactive)	–	> 100 µM (inactive)	45.6 µM (inactive)	> 100 µM (inactive)	> 100 µM (inactive)	> 100 µM (inactive)	> 100 µM (inactive)	> 100 µM (inactive)
Cc1ccc2ccc(O)cc2c1	> 100 µM (inactive)	43.6 µM (inactive)	53.6 µM (inactive)	23.3 µM (inactive)	39.4 µM (inactive)	37.2 µM (inactive)	30.2 µM (inactive)	19 µM (inactive)	> 100 µM (inactive)	57.4 µM (inactive)	19.9 µM (inactive)	23.9 µM (inactive)	24.9 µM (inactive)	18.5 µM (inactive)	28.4 µM (inactive)	> 100 µM (inactive)	89.1 µM (inactive)	46.5 µM (inactive)	20.7 µM (inactive)
O=Cc1cc2c(o1)C(=O)c1ccccc1C2=O	0.656 µM (active)	1.78 µM (inactive)	1.98 µM (inactive)	1.26 µM (inactive)	0.367 µM (active)	4.78 µM (inactive)	0.267 µM (active)	0.197 µM (active)	2.7 µM (inactive)	0.233 µM (active)	1.48 µM (inactive)	2.09 µM (inactive)	1.83 µM (inactive)	0.286 µM (active)	1.07 µM (active)	0.834 µM (active)	0.794 µM (active)	0.192 µM (active)	1.33 µM (inactive)
COc1ccc(NC(=O)CC(=O)n2nc(C)c(/N=N/c3cccc(C)c3)c2C)cc1	> 100 µM (inactive)	> 100 µM (inactive)	> 100 µM (inactive)	> 100 µM (inactive)	> 100 µM (inactive)	56.6 µM (inactive)	> 100 µM (inactive)	> 100 µM (inactive)	> 100 µM (inactive)	> 100 µM (inactive)	> 100 µM (inactive)	> 100 µM (inactive)	69.8 µM (inactive)	> 100 µM (inactive)	> 100 µM (inactive)	37.6 µM (inactive)	> 100 µM (inactive)	> 100 µM (inactive)	–
CCN(CC)C(=S)/N=C(\SC(=S)N(CC)CC)c1ccccc1	> 94.8 µM (inactive)	39.6 µM (inactive)	> 68.2 µM (inactive)	56 µM (inactive)	42.6 µM (inactive)	> 95.3 µM (inactive)	15.1 µM (inactive)	> 59 µM (inactive)	> 89.5 µM (inactive)	0.569 µM (active)	0.119 µM (active)	0.787 µM (active)	> 100 µM (inactive)	1.27 µM (inactive)	7.96 µM (inactive)	29.9 µM (inactive)	6.1 µM (inactive)	37.5 µM (inactive)	21.4 µM (inactive)
COC(=O)C1=CN(C2CCCCC2)C2(c3ccccc3)c3ccccc3C(=O)OC(=O)C12 (stereo not drawn)	> 100 µM (inactive)	–	> 100 µM (inactive)	> 100 µM (inactive)	> 100 µM (inactive)	> 100 µM (inactive)	42.3 µM (inactive)	46.5 µM (inactive)	> 100 µM (inactive)	> 100 µM (inactive)	> 100 µM (inactive)	> 100 µM (inactive)	39 µM (inactive)	15.2 µM (inactive)	> 100 µM (inactive)	90.8 µM (inactive)	80.2 µM (inactive)	> 100 µM (inactive)	> 100 µM (inactive)
COc1cc(CNc2nc3ccccc3nc2C(=O)O)cc(OC)c1OC	–	74 µM (inactive)	> 100 µM (inactive)	> 100 µM (inactive)	> 100 µM (inactive)	> 100 µM (inactive)	> 100 µM (inactive)	> 100 µM (inactive)	> 100 µM (inactive)	98.4 µM (inactive)	71.9 µM (inactive)	> 100 µM (inactive)	65 µM (inactive)	> 100 µM (inactive)	> 100 µM (inactive)	> 100 µM (inactive)	94 µM (inactive)	–	> 100 µM (inactive)
CC(CCCC1SCC2NC(=O)NC21)C(=O)O (stereo not drawn)	> 100 µM (inactive)	> 100 µM (inactive)	> 100 µM (inactive)	> 100 µM (inactive)	> 100 µM (inactive)	> 100 µM (inactive)	> 100 µM (inactive)	> 100 µM (inactive)	> 100 µM (inactive)	> 100 µM (inactive)	> 100 µM (inactive)	–	> 100 µM (inactive)	> 100 µM (inactive)	> 100 µM (inactive)	> 100 µM (inactive)	> 100 µM (inactive)	> 100 µM (inactive)	> 100 µM (inactive)
